The experiment deals with glycogen phosphorylase b, muscle (Oryctolagus cuniculus) (UniProt P00489).

Data on eleven compounds can be found in ChEMBL document CHEMBL1148320, “Characterization of a ligand-receptor binding event using receptor-dependent four-dimensional quantitative structure-activity relationship analysis” (J Med Chem, 2004).

Sequence of glycogen phosphorylase b, muscle (Oryctolagus cuniculus) (P00489 whole entry, looked up): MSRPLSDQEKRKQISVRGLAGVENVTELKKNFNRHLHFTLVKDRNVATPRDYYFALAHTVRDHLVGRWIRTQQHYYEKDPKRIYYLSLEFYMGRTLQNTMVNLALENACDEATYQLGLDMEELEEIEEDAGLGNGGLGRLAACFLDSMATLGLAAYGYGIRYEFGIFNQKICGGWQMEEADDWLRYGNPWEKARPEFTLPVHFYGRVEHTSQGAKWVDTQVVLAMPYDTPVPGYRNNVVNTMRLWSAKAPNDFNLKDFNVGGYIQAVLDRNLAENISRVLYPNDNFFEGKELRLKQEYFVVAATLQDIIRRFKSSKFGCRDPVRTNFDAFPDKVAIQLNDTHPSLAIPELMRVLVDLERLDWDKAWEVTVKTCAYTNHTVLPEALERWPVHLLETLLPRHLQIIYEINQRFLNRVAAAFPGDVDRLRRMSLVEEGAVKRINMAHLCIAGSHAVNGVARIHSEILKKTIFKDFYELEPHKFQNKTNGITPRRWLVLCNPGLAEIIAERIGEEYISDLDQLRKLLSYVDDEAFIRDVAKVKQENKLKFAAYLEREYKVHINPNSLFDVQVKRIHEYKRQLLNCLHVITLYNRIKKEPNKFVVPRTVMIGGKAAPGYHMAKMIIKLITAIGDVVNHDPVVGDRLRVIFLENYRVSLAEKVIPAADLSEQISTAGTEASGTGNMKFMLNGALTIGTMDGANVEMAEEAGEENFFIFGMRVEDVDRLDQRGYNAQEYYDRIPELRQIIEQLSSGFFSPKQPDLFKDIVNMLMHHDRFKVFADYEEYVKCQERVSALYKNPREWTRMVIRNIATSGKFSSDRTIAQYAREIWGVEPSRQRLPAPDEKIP

Regarding `CCC(=O)NC1O[C@H](CO)[C@@H](O)[C@H](O)[C@H]1O` (single isomer, unassigned), the inhibition constant (Ki) is 0.039 mM.

The compound `NC(=O)CSC1O[C@H](CO)[C@@H](O)[C@H](O)[C@H]1O` (single isomer, unassigned) came in with an inhibitory constant (Ki) of 21.1 mM. `O=C(CSC1O[C@H](CO)[C@@H](O)[C@H](O)[C@H]1O)Nc1ccccc1` (single isomer, unassigned) yielded an inhibition constant (Ki) of 3.6 mM. For `OC[C@H]1S[C@H](O)[C@H](O)[C@@H](O)[C@@H]1O` the value was 2 mM; for `O=C(CSC1O[C@H](CO)[C@@H](O)[C@H](O)[C@H]1O)Nc1ccc(F)cc1F` (single isomer, unassigned), 18.9 mM. With `CC(=O)NCC(=O)NC1O[C@H](CO)[C@@H](O)[C@H](O)[C@H]1O` (single isomer, unassigned) the figure was 0.99 mM.

`OC[C@H]1O[C@@](O)(CO)[C@H](O)[C@@H](O)[C@@H]1O` returned a Ki of 15.8 mM. With `CNNC(=O)C1O[C@H](CO)[C@@H](O)[C@H](O)[C@H]1O` (single isomer, unassigned) the figure was 1.8 mM. For `CCCC(=O)NC1O[C@H](CO)[C@@H](O)[C@H](O)[C@H]1O` (single isomer, unassigned), the affinity corresponds to a Ki of 0.094 mM. Compound `O=C(CCl)NC1O[C@H](CO)[C@@H](O)[C@H](O)[C@H]1O` (single isomer, unassigned) displayed a Ki of 0.045 mM. The compound `NC(=O)NC1O[C@H](CO)[C@@H](O)[C@H](O)[C@H]1O` (single isomer, unassigned) returned a Ki of 0.14 mM.
